The values below come from article PMC6731595, “The anti-parasitic agent suramin and several of its analogues are inhibitors of the DNA binding protein Mcm10” (Open Biology, 2019).

Molecules are shown by their SMILES. “Also recorded” adds a separate entry of the source. Structures can show the parent of a compound that is named as a salt.

For series [1], the target named is T1, full-length Xenopus Mcm10 (xMcm10-FL) (Xenopus laevis, UniProt Q5EAW4).
T1 construct: The full-length xMcm10 was expressed with MBP fused onto the N-terminus and 6x-His tag attached to the C-terminus; 6xHis (C); made in house; host or cells: E. coli BL21(DE3), as for the ID constructs ('as described above')
T1 sequence (Q5EAW4 1-860): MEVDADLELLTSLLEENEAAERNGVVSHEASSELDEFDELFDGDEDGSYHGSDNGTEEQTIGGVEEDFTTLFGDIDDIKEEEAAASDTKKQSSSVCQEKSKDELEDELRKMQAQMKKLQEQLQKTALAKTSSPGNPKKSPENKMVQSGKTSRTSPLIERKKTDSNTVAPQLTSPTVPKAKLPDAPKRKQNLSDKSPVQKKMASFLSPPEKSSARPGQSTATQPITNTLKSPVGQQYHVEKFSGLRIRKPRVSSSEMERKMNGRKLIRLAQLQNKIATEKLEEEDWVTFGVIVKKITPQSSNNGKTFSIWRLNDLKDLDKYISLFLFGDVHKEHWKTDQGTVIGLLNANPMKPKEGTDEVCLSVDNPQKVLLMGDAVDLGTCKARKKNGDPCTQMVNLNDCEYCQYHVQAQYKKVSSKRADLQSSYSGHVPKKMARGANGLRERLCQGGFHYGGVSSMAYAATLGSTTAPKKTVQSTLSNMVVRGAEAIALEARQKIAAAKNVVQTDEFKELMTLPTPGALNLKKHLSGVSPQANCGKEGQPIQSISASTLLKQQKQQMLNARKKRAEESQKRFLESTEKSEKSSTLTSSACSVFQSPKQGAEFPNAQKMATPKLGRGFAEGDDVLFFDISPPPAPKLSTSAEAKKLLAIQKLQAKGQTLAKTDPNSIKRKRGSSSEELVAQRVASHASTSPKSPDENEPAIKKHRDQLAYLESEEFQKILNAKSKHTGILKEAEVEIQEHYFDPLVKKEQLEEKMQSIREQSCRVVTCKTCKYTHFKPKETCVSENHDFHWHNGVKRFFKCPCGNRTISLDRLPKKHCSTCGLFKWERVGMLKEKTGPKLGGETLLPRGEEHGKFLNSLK
Description: Fluorescence polarization competition assay, displacement of 5′-6FAM ssDNA probe from xMcm10-FL. Type of series: binding. To be noted: for Ki: averages of n = 2, xMcm10-FL 2 μM; for activity at xMcm10-FL (result in words): FP displacement curves, figure S3. On the procedure: (§1) A fluorescence polarization (FP) HTS assay was established to detect inhibitors of the binding of the 5′-6FAM 10-mer oligo probe to Mcm10. Test compounds dissolved in DMSO were added to 384-well plates (Corning 4514) using an Echo 550 acoustic dispenser (final DMSO 0.1%) to achieve a final single point screening concentration of 10 µM. Then 10 µl of 2× Xenopus internal domain Mcm10 (xMcm10-ID, final concentration 2 µM) in binding buffer (20 mM Tris HCl, 100 mM NaCl, 5% glycerol, and 0.01% triton, pH 7.5) was added using the Combi nL Multidrop dispenser. Finally, 10 µl of 2× 5′-6FAM DNA (final 12.5 nM) in binding buffer was added using the Multidrop. DMSO (0.1%, high signal) and probe only (low signal) controls were included on every plate. Plates were mixed for 2 min, incubated for 60 min at RT in the dark, and read on a CLARIOstar multimode plate reader (excitation: 482-16, emission: 530-40, dichroic filter: LP504).
(§2) The LOPAC pilot screen identified the sulfhydryl reagent 4-chloromercuribenzoic acid as an inhibitor in the fluorescence polarization (FP) assay. As there was no known Mcm10 inhibitor, 4-chloromercuribenzoic acid (30 μM) was used as a positive control on initial screening plates. Following the discovery of suramin as a Mcm10 inhibitor, suramin (7 μM) was used as a positive control on subsequent screening plates. To confirm activity, screening hits were tested in dose response experiments (8 concentrations in duplicate) using xMcm10-ID. Similar dose response experiments were conducted with suramin and its analogs to confirm activity for hMcm10-ID (1 μM) and xMcm10-FL (2 μM) and to determine selectivity relative to RPA70AB (0.4 μM). Saturation experiments for each protein were conducted using increasing concentrations of protein with a fixed probe concentration (12.5 nM). FP was measured in mP units, and ∆mP values for each well were calculated as the difference between the measured mP and the average of the “probe only” controls. […] The parallel and perpendicular mP values were also used to calculate total fluorescence intensity (TFI) determined by the sum of parallel mP + (2 x perpendicular mP). TFI was used to detect fluorescence interference by compounds [1]. […] IC50 values were calculated using the four parameter logistic equation in Prism 6.0 (GraphPad). Ki values were obtained using an online Ki calculator according to the equations of Nikolovska-Coleska (http://sw16.im.med.umich.edu/soft-ware/calc_ki/). KD values were calculated using the one site or two site binding equations in Prism 6.0 (GraphPad).
A general note: In fluorescence polarisation assays a small probe gives low polarisation when free and higher when bound to something large.

For series [2], the target named is T2, human Mcm10 internal domain (hMcm10-ID) (Homo sapiens, UniProt Q7L590).
T2 construct: hMcm10-ID (residues 237 to 436) were expressed in E. coli strain BL21(DE3); 6xHis (HRV 3C site) (N, cleaved yes); made in house; host or cells: E. coli BL21(DE3)
T2 sequence (Q7L590 237-436): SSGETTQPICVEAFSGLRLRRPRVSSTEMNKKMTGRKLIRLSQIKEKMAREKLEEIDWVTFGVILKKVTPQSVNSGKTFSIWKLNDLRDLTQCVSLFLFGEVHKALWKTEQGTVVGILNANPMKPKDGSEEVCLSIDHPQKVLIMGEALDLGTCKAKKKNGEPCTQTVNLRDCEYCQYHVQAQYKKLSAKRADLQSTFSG
Description: Fluorescence polarization competition assay, displacement of 5′-6FAM 10-mer ssDNA probe from hMcm10-ID. Type of series: binding. To be noted: mean ± s.e.m., n ≥ 3; hMcm10-ID 1 μM, probe 12.5 nM. On the procedure: as §1, §2

Series [3] deals with HCT116 cells. As to the kind of experiment: CellTiter-Glo cell viability assay, HCT116. Type of series: cell-based, human. As to conditions: for IC50: Homo sapiens, HCT-116, 96 h, 4 days, intracellular ATP, mean ± s.e.m., n = 3. On the procedure: Cells were cultured at 37°C and 5% CO2. […] Cells were allowed to grow for 4 days in inhibitor containing medium and cell viability was measured with the CellTiter-Glo Luminescent Cell Viability Assay (Promega G7572) following the manufacturer's instructions. Viability of each drug treatment condition was normalized to the untreated control for each cell line and fitted to the sigmoidal dose–response variable slope four parameter equation in GraphPad Prism 6.0.
For orientation: Cellular ATP, detected with luciferase, serves as a proxy for viable cell number.

The target of series [4] is T3, Xenopus internal domain Mcm10 (xMcm10-ID) (Xenopus laevis, UniProt Q5EAW4).
T3 construct: xMcm10-ID (amino acid residues 229 to 427); 6xHis (HRV 3C site) (N, cleaved yes); made in house; host or cells: E. coli BL21(DE3)
T3 sequence (Q5EAW4 229-427): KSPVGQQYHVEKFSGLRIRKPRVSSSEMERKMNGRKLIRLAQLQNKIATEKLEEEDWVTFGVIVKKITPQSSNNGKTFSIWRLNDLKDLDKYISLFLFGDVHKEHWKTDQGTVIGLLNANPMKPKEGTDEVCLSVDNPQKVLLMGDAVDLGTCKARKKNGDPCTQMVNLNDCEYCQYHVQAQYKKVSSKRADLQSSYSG
Description: Fluorescence polarization HTS and dose-response assay, 5′-6FAM probe binding to xMcm10-ID. As to conditions: dose-response with repurchased or purchased compound. As to the method:
as §1, §2

As usually defined, the Ki is the equilibrium dissociation constant of an inhibitor or competing ligand from its target. Higher therefore signals a looser hold on the target. Take `O=C(Nc1cccc(C(=O)Nc2ccc(S(=O)(=O)O)c3cc(S(=O)(=O)O)cc(S(=O)(=O)O)c23)c1)Nc1cccc(C(=O)Nc2ccc(S(=O)(=O)O)c3cc(S(=O)(=O)O)cc(S(=O)(=O)O)c23)c1` [NF023]: the inhibition constant (Ki) in series [1] came to 4.4 µM; in series [2] it was 1.8 ± 0.2 µM.

A word on the IC50: it is the point on the concentration scale where inhibition reaches its midpoint. With `O=C(Nc1cccc(C(=O)Nc2cc(C(=O)Nc3ccc(S(=O)(=O)O)c4cc(S(=O)(=O)O)cc(S(=O)(=O)O)c34)ccc2F)c1)Nc1cccc(C(=O)Nc2cc(C(=O)Nc3ccc(S(=O)(=O)O)c4cc(S(=O)(=O)O)cc(S(=O)(=O)O)c34)ccc2F)c1` [NF157], in series [1] (FP Ki comparison), the “higher affinity for hMcm10-ID over xMcm10-FL” value is on record as “up to 20 fold”. For the same compound, the inhibitory constant (Ki) in series [1] was 3.4 µM. The compound also came in with a Ki in series [2] of 0.17 ± 0.02 µM. In series [3], the “higher cytotoxicity for HCT116 cancer cells in comparison to hTERT RPE-1 cells” value (shortened to “higher cytotoxicity”) is reported as “approximately 3.5 fold”, the “selectivity = hTERT RPE-1 IC50/HCT116 IC50” value is on record as 3.2 and half-maximal inhibition (IC50) required 38 ± 1 µM.

As for `Cc1nc(/N=N/c2ccc(S(=O)(=O)O)cc2S(=O)(=O)O)c(COP(=O)(O)O)c(C=O)c1O` [PPADS, pyridoxalphosphate-6-azophenyl-2’, 4’-disulfonic acid tetrasodium salt], in series [1], the “activity at xMcm10-FL (result in words)” value was “inactivity” and the Ki was more than 1000 µM. For the same compound, the “inhibition of 5′-6FAM probe binding to xMcm10-ID (result in words)” value (shortened to “inhibition of 5′-6FAM probe binding”) in series [4] is “weakly and incompletely inhibit; also recorded: little activity”. In addition, in series [2], the inhibition constant (Ki) came to 17 ± 1 µM. In addition, in series [3], the “higher cytotoxicity” value was “little cell type specificity”, the “selectivity = hTERT RPE-1 IC50/HCT116 IC50” value is 1.3 and the concentration for half-maximal inhibition (IC50) amounted to 310 ± 20 µM.

Take `Cc1nc(/N=N/c2cc(S(=O)(=O)O)ccc2S(=O)(=O)O)c(COP(=O)(O)O)c(C=O)c1O` [iso-PPADS, pyridoxalphosphate-6-azophenyl-2’, 5’-disulfonic acid tetrasodium salt]: in series [1], the “activity at xMcm10-FL (result in words)” value is “inactivity” and the Ki is more than 1000 µM. In addition, the “inhibition of 5′-6FAM probe binding” value in series [4] was “weakly and incompletely inhibit; also recorded: little activity”. The Ki in series [2] worked out at 18 ± 2 µM. Besides, in series [3], the “higher cytotoxicity” value is recorded as “little cell type specificity”, the “selectivity = hTERT RPE-1 IC50/HCT116 IC50” value is 1.5 and the concentration for half-maximal inhibition (IC50) is 370 ± 30 µM.

`Cc1ccc(C(=O)Nc2ccc(S(=O)(=O)O)c3cc(S(=O)(=O)O)cc(S(=O)(=O)O)c23)cc1NC(=O)c1cccc(NC(=O)Nc2cccc(C(=O)Nc3cc(C(=O)Nc4ccc(S(=O)(=O)O)c5cc(S(=O)(=O)O)cc(S(=O)(=O)O)c45)ccc3C)c2)c1` [suramin, suramin sodium salt] yielded a Ki in series [1] of 3.4 µM. In addition, the “inhibition of 5′-6FAM probe binding” value in series [4] is “active”. In addition, the affinity in series [2] corresponds to a Ki of 0.83 ± 0.07 µM. Besides, in series [3], the “higher cytotoxicity” value is “approximately 3.5 fold”, the “selectivity = hTERT RPE-1 IC50/HCT116 IC50” value is listed as 3.7 and the IC50 stood at 109 ± 10 µM.
